# Results published in ChEMBL document CHEMBL4665861, “Chemical constituents from Macleaya cordata (Willd) R. Br. and their phenotypic functions against a Parkinson's disease patient-derived cell line” (Bioorg Med Chem, 2020).
# Active and inactive are the calls of the source. The rule behind the calls is not given here.
# Assays:
# [1] = Cytotoxicity against Parkinson's disease patient human ONS derived C1200080013 cells assessed as cell death at 30 uM incubated for 24 hrs; assay type: cell-based; conditions: c1200080013, 24 h
# C1200080013 = assay: Induction of cytological phenotypic changes in cellular organelles in Parkinson's disease patient human ONS derived C1200080013 cells assessed as perturbation in mitochondrial features by measuring punctuate and fragmented mitochondrial morphology at 30 uM incubated for 24 hrs by MitoTrackerOrange CMTMRos/DAPI staining based fluorescence microscopic analysis; assay type: functional, cell-based
# [2] = (§1) Induction of cytological phenotypic changes in cellular organelles in Parkinson's disease patient human ONS derived C1200080013 cells assessed as perturbation of EEA1 marker intensity in cytoplasm by measuring log2ratio at 30 uM incubated for 24 hrs by LysoTrackerRed DND-99/anti-EEA1 staining based fluorescence microscopic analysis; assay type: tissue-based; conditions: c1200080013, 24 h
# [3] = (§2) Induction of cytological phenotypic changes in cellular organelles in Parkinson's disease patient human ONS derived C1200080013 cells assessed as perturbation of mitochondria marker intensity in inner region of cytoplasm by measuring log2ratio at 30 uM incubated for 24 hrs by MitoTrackerOrange CMTMRos/DAPI staining based fluorescence microscopic analysis; assay type: functional
# [4] = Induction of cytological phenotypic changes in cellular organelles in Parkinson's disease patient human ONS derived C1200080013 cells assessed as perturbation of auto-phagosomal features by measuring depletion in LC3b staining intensity at 30 uM incubated for 24 hrs by anti-LC3b1/335/DAPI staining based fluorescence microscopic analysis; assay type: tissue-based; conditions: c1200080013, 24 h
# [5] = as §2, with “features” for “marker intensity in inner region of cytoplasm”, “reduction in MitoTracker staining intensity” for “log2ratio”; conditions: c1200080013, 24 h
# [6] = as §1, with “early endosomal features” for “EEA1 marker intensity in cytoplasm”, “reduction in EEA1 staining intensity” for “log2ratio”; assay type: tissue-based; conditions: c1200080013, 24 h
# [7] = as §1, with “changes” for “perturbation of EEA1 marker intensity”, “features associated with early endosome antigen1” for “cytoplasm”, “alteration in EEA1 staining intensity” for “log2ratio”, “10” for “30”; assay type: tissue-based; conditions: c1200080013, 24 h
# [8] = as §2, with “auto-phagosomal LC3b” for “mitochondria”, “anti-LC3b1/335/DAPI” for “MitoTrackerOrange CMTMRos/DAPI”; assay type: tissue-based; conditions: c1200080013, 24 h
# [9] = as §2, with “changes in” for “perturbation of”, “cytoplasm” for “cytoplasm by measuring log2ratio”, “20” for “30”; conditions: c1200080013, 24 h
smiles,measurement,setting,value
COc1cc2c(c3c[n+](C)c4c5cc6c(cc5ccc4c13)OCO6)OCO2,Activity,[1],Toxic
COc1ccc2c(c1OC)C(CO)N(C)c1c-2ccc2cc3c(cc12)OCO3 (configuration not stated),Activity,C1200080013,Active
same,log(ratio),[2],-0.73
same,log(ratio),[3],-0.85
COc1cc(/C=C/C(=O)O[C@@H]2C[C@](O)(C(=O)O)C[C@@H](O)[C@H]2O)ccc1O,Activity,[4],Non-Toxic
same,Activity,[5],Non-Toxic
same,Activity,[6],Non-Toxic
C[n+]1cc2c3c(ccc2c2ccc4cc5c(cc4c21)OCO5)OCO3 [SANGUINARIUM],Activity,[1],Toxic
CCN(CC)CCCC(C)Nc1ccnc2cc(Cl)ccc12 (configuration not stated) [CHLOROQUINE],Activity,[4],Non-Toxic
same,Activity,[7],Toxic
COc1cc(/C=C/C(=O)O)ccc1O[C@@H]1O[C@H](CO)[C@@H](O)[C@H](O)[C@H]1O,Activity,[4],Non-Toxic
same,Activity,[5],Non-Toxic
same,Activity,[6],Non-Toxic
COc1ccc2c(c1OC)C(C(C)O)N(C)c1c-2ccc2cc3c(cc12)OCO3 (configuration not stated),log(ratio),[8],-0.99
COc1ccc2c(c[n+](C)c3c4cc5c(cc4ccc23)OCO5)c1OC [CHELERYTHRINE],Activity,[1],Toxic
COc1cc(OC)c2c(c[n+](C)c3c4cc5c(cc4ccc23)OCO5)c1OC,Activity,[1],Toxic
C=C(C)[C@H]1Cc2c(ccc3c2O[C@@H]2COc4cc(OC)c(OC)cc4[C@@H]2C3=O)O1 [ROTENONE],Activity,[9],Toxic
